Laboratory results taken from US7772241B2, “Variolin derivatives and their use as antitumor agents” (Pharma Mar S.A., priority 2001, dated 2010).
Like-named read-outs stand apart in the source and are kept apart here.

Columns and labels:
HT-29 = test: Inhibition of cells growth by colorimetric (SRB) assay, HT-29
Summary of the method: (§1)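 Human tumour cells seeded at 5×10^3/well in RPMI 1640 10% FBS, attached 18 h, then exposed 48 h to samples at 10 to 10^−8 μg/ml in DMSO/EtOH/PBS (0.5:0.5:99). Growth read by SRB staining after TCA fixation, OD 490 nm, triplicate wells; GI, TGI and LC derived.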

A-549 = test: Inhibition of cells growth by colorimetric (SRB) assay, A-549
Summary of the method: as §1

IGROV-1 = test: Inhibition of cells growth by colorimetric (SRB) assay, IGROV-1; conditions: for CC50: read-out: LC50 IGROV
Summary of the method: as §1

LoVo = test: Inhibition of cells growth by colorimetric (SRB) assay, LoVo; conditions: for CC50: read-out: LC50 LOVO
Summary of the method: as §1

IGROV-ET = test: Inhibition of cells growth by colorimetric (SRB) assay, IGROV-ET
Summary of the method: as §1

K-562 = test: Inhibition of cells growth by colorimetric (SRB) assay, K-562
Summary of the method: as §1

LoVo-Dox = test: Inhibition of cells growth by colorimetric (SRB) assay, LoVo-Dox
Summary of the method: as §1

SK-MEL-28 = test: Inhibition of cells growth by colorimetric (SRB) assay, SK-MEL-28; conditions: SRB assay, 48 hours exposure; for GI50: read-out: GI50 MEL-28; for CC50: read-out: LC50 MEL-28
Summary of the method: as §1

PANC-1 = test: Inhibition of cells growth by colorimetric (SRB) assay, PANC-1
Summary of the method: as §1

DU-145 = test: Inhibition of cells growth by colorimetric (SRB) assay, DU-145; conditions: for CC50: read-out: LC50 DU-145
Summary of the method: as §1

SK-OV-3 = test: Inhibition of cells growth by colorimetric (SRB) assay, SK-OV-3
Summary of the method: as §1

SK-BR-3 = test: Inhibition of cells growth by colorimetric (SRB) assay, SK-BR-3
Description: The finality of these assays is to interrupt the growth of a “in vitro” tumor cell culture by means a continued exhibition of the cells to the sample to be testing.
This form of the assay employs 96 well cell culture microplates of 9 mm diameter (Faircloth, 1988; Mosmann, 1983). Most of the cell lines are obtained from American Type Culture Collection (ATCC) derived from different human cancer types.
Cells are maintained in RPMI 1640 10% FBS, supplemented with 0.1 g/l penicillin and 0.1 g/l streptomycin sulphate and then incubated at 37° C., 5% CO2 and 98% humidity. For the experiments, cells were harvested from subconfluent cultures using trypsin and resuspended in fresh medium before plating.
Cells are seeded in 96 well microtiter plates, at 5×10^3 cells per well in aliquots of 195 μl medium, and they are allowed to attach to the plate surface by growing in drug free medium for 18 hours. Afterward, samples are added in aliquots of 5 μl in a ranging from 10 to 10^−8 μg/ml, dissolved in DMSO/EtOH/PBS (0.5:0.5:99). After 48 hours exposure, the antitumor effect are measured by the SRB methodology: cells are fixed by adding 50 μl of cold 50% (wt/vol) trichloroacetic acid (TCA) and incubating for 60 minutes at 4° C. Plates are washed with deionized water and dried. One hundred μl of SRB solution (0.4% wt/vol in 1% acetic acid) is added to each microtiter well and incubated for 10 minutes at room temperature. Unbound SRB is removed by washing with 1% acetic acid. Plates are air dried and bound stain is solubilized with Tris buffer. Optical densities are read on a automated spectrophotometric plate reader at a single wavelength of 490 nm.
The values for mean +/−SD of data from triplicate wells are calculated. Some parameters for cellular responses can be calculated: GI=growth inhibition, TGI=total growth inhibition (cytostatic effect) and LC=cell killing (cytotoxic effect).

`Nc1nccc(-c2c3c(N)ccnc3n3c(N)nccc23)n1` [Compound 90] was tested, and the GI50 (HT-29; Homo sapiens, HT-29, 48 h, read-out: GI50 HT-29, SRB assay, 48 hours exposure) was 1.27 µM, the CC50 (HT-29; Homo sapiens, HT-29, 48 h, read-out: LC50 HT-29, SRB assay, 48 hours exposure) was 15.8 µM and the “TGI HT-29” value (HT-29; SRB assay, 48 hours exposure) was 1.44E−05. The GI50 (A-549; Homo sapiens, A549, 48 h, read-out: GI50 A-549, SRB assay, 48 hours exposure) was 0.887 µM, the CC50 (A-549; Homo sapiens, A549, 48 h, read-out: LC50 A-549, SRB assay, 48 hours exposure) was 7.05 µM and the “TGI A-549” value (A-549; SRB assay, 48 hours exposure) was 2.05E−06. The GI50 (IGROV-1; Homo sapiens, IGROV-1, 48 h, read-out: GI50 IGROV, SRB assay, 48 hours exposure) was 0.339 µM, the “TGI IGROV” value (IGROV-1; SRB assay, 48 hours exposure) was 6.92E−07 and the CC50 (IGROV-1; SRB assay, 48 hours exposure) was 1.41 µM. The GI50 (LoVo; Homo sapiens, LoVo, 48 h, read-out: GI50 LOVO, SRB assay, 48 hours exposure) was 0.276 µM, the “TGI LOVO” value (LoVo; SRB assay, 48 hours exposure) was 6.54E−07 and the CC50 (LoVo; SRB assay, 48 hours exposure) was 1.56 µM. The GI50 (IGROV-ET; Homo sapiens, 48 h, read-out: GI50 IGROV-ET, SRB assay, 48 hours exposure) was 1.92 µM, the CC50 (IGROV-ET; Homo sapiens, 48 h, read-out: LC50 IGROV-ET, SRB assay, 48 hours exposure) was 15.8 µM and the “TGI IGROV-ET” value (IGROV-ET; SRB assay, 48 hours exposure) was 6.95E−06. The GI50 (K-562; Homo sapiens, K562, 48 h, read-out: GI50 K-562, SRB assay, 48 hours exposure) was 1.23 µM, the CC50 (K-562; Homo sapiens, K562, 48 h, read-out: LC50 K-562, SRB assay, 48 hours exposure) was 15.8 µM and the “TGI K-562” value (K-562; SRB assay, 48 hours exposure) was 5.28E−06. The GI50 (LoVo-Dox; Homo sapiens, 48 h, read-out: GI50 LOVO-DOX, SRB assay, 48 hours exposure) was 0.597 µM, the CC50 (LoVo-Dox; Homo sapiens, 48 h, read-out: LC50 LOVO-DOX, SRB assay, 48 hours exposure) was 8.07 µM and the “TGI LOVO-DOX” value (LoVo-Dox; SRB assay, 48 hours exposure) was 1.27E−06. For the same compound, the “TGI MEL-28” value (SK-MEL-28) was 9.68E−07, the GI50 (SK-MEL-28) was 0.397 µM and the CC50 (SK-MEL-28) was 3.45 µM. For the same compound, the GI50 (PANC-1; Homo sapiens, PANC-1, 48 h, read-out: GI50 PANC-1, SRB assay, 48 hours exposure) was 1.18 µM, the CC50 (PANC-1; Homo sapiens, PANC-1, 48 h, read-out: LC50 PANC-1, SRB assay, 48 hours exposure) was 15.8 µM and the “TGI PANC-1” value (PANC-1; SRB assay, 48 hours exposure) was 4.98E−06. For the same compound, the GI50 (DU-145; Homo sapiens, DU-145, 48 h, read-out: GI50 DU-145, SRB assay, 48 hours exposure) was 0.355 µM, the “TGI DU-145” value (DU-145; SRB assay, 48 hours exposure) was 1.03E−06 and the CC50 (DU-145; SRB assay, 48 hours exposure) was 10.7 µM. For the same compound, the GI50 (SK-OV-3; Homo sapiens, SK-OV-3, 48 h, read-out: GI50 SKOV-3, SRB assay, 48 hours exposure) was 0.465 µM, the CC50 (SK-OV-3; Homo sapiens, SK-OV-3, 48 h, read-out: LC50 SKOV-3, SRB assay, 48 hours exposure) was 13.9 µM and the “TGI SKOV-3” value (SK-OV-3; SRB assay, 48 hours exposure) was 1.15E−06. The GI50 (SK-BR-3; Homo sapiens, SK-BR-3, 48 h, read-out: GI50 SK-BR-3, SRB assay, 48 hours exposure) was 0.311 µM, the CC50 (SK-BR-3; Homo sapiens, SK-BR-3, 48 h, read-out: LC50 SK-BR-3, SRB assay, 48 hours exposure) was 1.42 µM and the “TGI SK-BR-3” value (SK-BR-3; SRB assay, 48 hours exposure) was 6.64E−07.

In the case of `Cl.Nc1nccc(-c2c3c(N)ccnc3n3c(N)nccc23)n1` [Compound 91], the “TGI HT-29” value (HT-29; SRB assay, 48 hours exposure) is reported as 2.49E−06, the GI50 (HT-29; read-out: GI50 HT-29, SRB assay, 48 hours exposure) is reported as 1.34 µM and the CC50 (HT-29; read-out: LC50 HT-29, SRB assay, 48 hours exposure) is reported as 24.9 µM. For the same compound, the “TGI A-549” value (A-549; SRB assay, 48 hours exposure) was 2.09E−06, the GI50 (A-549; read-out: GI50 A-549, SRB assay, 48 hours exposure) was 1.09 µM and the CC50 (A-549; read-out: LC50 A-549, SRB assay, 48 hours exposure) was 8.29 µM. For the same compound, the “TGI IGROV” value (IGROV-1; SRB assay, 48 hours exposure) was 9.73E−07, the GI50 (IGROV-1; read-out: GI50 IGROV, SRB assay, 48 hours exposure) was 0.241 µM and the CC50 (IGROV-1; SRB assay, 48 hours exposure) was 6.02 µM. The “TGI LOVO” value (LoVo; SRB assay, 48 hours exposure) was 8.49E−07, the GI50 (LoVo; read-out: GI50 LOVO, SRB assay, 48 hours exposure) was 0.201 µM and the CC50 (LoVo; SRB assay, 48 hours exposure) was 6.82 µM. For the same compound, the “TGI IGROV-ET” value (IGROV-ET; SRB assay, 48 hours exposure) was 1.98E−06, the GI50 (IGROV-ET; read-out: GI50 IGROV-ET, SRB assay, 48 hours exposure) was 1.16 µM and the CC50 (IGROV-ET; read-out: LC50 IGROV-ET, SRB assay, 48 hours exposure) was 24.9 µM. The “TGI K-562” value (K-562; SRB assay, 48 hours exposure) was 3.78E−06, the GI50 (K-562; read-out: GI50 K-562, SRB assay, 48 hours exposure) was 1.32 µM and the CC50 (K-562; read-out: LC50 K-562, SRB assay, 48 hours exposure) was 24.9 µM. For the same compound, the “TGI LOVO-DOX” value (LoVo-Dox; SRB assay, 48 hours exposure) was 1.86E−06, the GI50 (LoVo-Dox; read-out: GI50 LOVO-DOX, SRB assay, 48 hours exposure) was 0.774 µM and the CC50 (LoVo-Dox; read-out: LC50 LOVO-DOX, SRB assay, 48 hours exposure) was 7.47 µM. For the same compound, the “TGI MEL-28” value (SK-MEL-28) was 5.10E−07, the GI50 (SK-MEL-28) was 0.18 µM and the CC50 (SK-MEL-28) was 1.25 µM. For the same compound, the “TGI PANC-1” value (PANC-1; SRB assay, 48 hours exposure) was 2.44E−06, the GI50 (PANC-1; read-out: GI50 PANC-1, SRB assay, 48 hours exposure) was 0.896 µM and the CC50 (PANC-1; read-out: LC50 PANC-1, SRB assay, 48 hours exposure) was 16.2 µM. The “TGI DU-145” value (DU-145; SRB assay, 48 hours exposure) was 1.34E−06, the GI50 (DU-145; read-out: GI50 DU-145, SRB assay, 48 hours exposure) was 0.336 µM and the CC50 (DU-145; SRB assay, 48 hours exposure) was 24.9 µM. The “TGI SKOV-3” value (SK-OV-3; SRB assay, 48 hours exposure) was 2.12E−06, the GI50 (SK-OV-3; read-out: GI50 SKOV-3, SRB assay, 48 hours exposure) was 0.7 µM and the CC50 (SK-OV-3; read-out: LC50 SKOV-3, SRB assay, 48 hours exposure) was 24.9 µM. For the same compound, the “TGI SK-BR-3” value (SK-BR-3; SRB assay, 48 hours exposure) was 6.45E−07, the GI50 (SK-BR-3; read-out: GI50 SK-BR-3, SRB assay, 48 hours exposure) was 0.251 µM and the CC50 (SK-BR-3; read-out: LC50 SK-BR-3, SRB assay, 48 hours exposure) was 1.65 µM.
